Values quoted from earlier work as cited in patent US4439425A, “Peptide derivatives” (Ciba-Geigy Corporation, priority 1979, dated 1984).

Test system: lymphocytes
Details: Z. Immun.-Forschung 153, 11-22 (1977)

murein lipoprotein: murein lipoprotein of the outer cell wall of Escherichia coli
in vitro mitogenic activity: in vitro mitogenic activity towards some lymphocytes
